Numbered stars: 1 amine (or outer) side, 2 acyl side, 3 side chain; on linkers, the order of the positions; unused ones are H or OH. Square brackets hold non-standard residues; d marks the D form. Side chains are listed from the residue outwards. Peptide text beside a SMILES is read from it. * marks the point of attachment. Biotin = O=C1N[C@H]2[C@H](CS[C@H]2CCCCC(=O)*)N1; γGlu = O=C(O)[C@H](CCC(=O)[*:2])N[*:1]; Palmitoyl = CCCCCCCCCCCCCCCC(=O)*; PhLac = O=C(O)[C@@H](O)Cc1ccccc1; PEG4 = NCCOCCOCCOCCOCCC(=O)O
Tests used:
[1] = target: T1, GCGR (Homo sapiens, UniProt P47871); test: GCGR cAMP accumulation, antagonist mode, native and biotinylated peptides; assay type: cell-based; conditions: HTRF, HEK Freestyle cells, arithmetic mean, n=3
T1 sequence (P47871 26-477): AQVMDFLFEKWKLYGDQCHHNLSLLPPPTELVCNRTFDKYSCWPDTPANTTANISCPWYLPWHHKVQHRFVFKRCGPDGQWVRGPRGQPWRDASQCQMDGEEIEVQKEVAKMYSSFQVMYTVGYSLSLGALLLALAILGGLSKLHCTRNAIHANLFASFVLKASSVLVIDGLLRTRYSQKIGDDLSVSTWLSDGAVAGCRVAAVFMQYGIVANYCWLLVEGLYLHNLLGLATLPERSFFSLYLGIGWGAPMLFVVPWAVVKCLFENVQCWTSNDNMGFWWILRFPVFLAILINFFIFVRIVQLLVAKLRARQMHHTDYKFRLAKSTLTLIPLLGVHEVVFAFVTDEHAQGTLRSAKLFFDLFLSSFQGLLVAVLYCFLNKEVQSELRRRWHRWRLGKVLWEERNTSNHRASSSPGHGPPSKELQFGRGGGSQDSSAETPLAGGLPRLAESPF
Method: HEK Freestyle cells (ThermoFisher Scientific, #R79007) seeded in suspension at a density of 250,000 cells/mL were transiently transfected with indicated receptor constructs using Fugene-6 reagent (Promega, #E2691). After 48 h, cells were pelleted and resuspended in assay buffer (DMEM, #Gibco 31053) containing 0.1% casein. Cells were then added at 1000 cells/well to 384-well white microplates (Costar, #3570) containing a range of agonist concentrations prepared via acoustic direct dilution in assay buffer containing 250 μM IBMX (total reaction volume of 20 μL), followed by incubation at 37 °C for 30 min. Cells were then lysed via sequential addition of d2-labeled cAMP competitor conjugate and cryptate-conjugated detection antibody (Revity, #62AM4PEC), then incubated for 1 h at room temperature with subsequent quantification of time-resolved fluorescence resonance energy transfer using an Envision plate reader and calibration to external synthetic cAMP standards in a parallel processed plate. Normalized percent values were fit to the 4-parameter logistic model using GraphPad Prism 10.1.2.
Figure S1. Enrichment of GCGR using biotinylated peptide ligands and bottom-up proteomic analysis of C-tail phosphorylation. A-B) GCGR cAMP accumulation was measured in (A) agonist mode and (B) antagonist mode using native and biotinylated peptides. Summary statistics for pharmacological […]

[2] = target: GLP-1R WT (Homo sapiens, UniProt P43220); test: cell-based; conditions: read-out: cAMP Emax Mean
Sequence of GLP-1R WT (P43220 24-463): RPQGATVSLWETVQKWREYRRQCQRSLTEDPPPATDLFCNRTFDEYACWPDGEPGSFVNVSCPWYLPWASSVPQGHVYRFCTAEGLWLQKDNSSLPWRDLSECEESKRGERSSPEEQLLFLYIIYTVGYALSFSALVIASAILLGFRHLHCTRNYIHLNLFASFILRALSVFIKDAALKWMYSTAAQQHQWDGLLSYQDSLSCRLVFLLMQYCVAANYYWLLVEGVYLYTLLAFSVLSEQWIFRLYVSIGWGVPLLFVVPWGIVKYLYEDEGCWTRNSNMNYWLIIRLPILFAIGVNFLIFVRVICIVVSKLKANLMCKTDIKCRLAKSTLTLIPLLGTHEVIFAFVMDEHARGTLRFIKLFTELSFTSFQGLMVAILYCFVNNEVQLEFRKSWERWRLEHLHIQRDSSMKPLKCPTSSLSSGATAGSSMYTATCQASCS
Method: (§1) Transfection for pharmacology experiments was conducted as previously described using FuGENE 6 (Promega, #E2691). […] Subsequently, 240 μL of room-temperature FuGENE 6 (Promega, #E2691) was added to the medium, mixed by inversion, and allowed to rest at room temperature for 5 min. 40 μg of the plasmid of interest was added to the FuGENE 6 containing medium, mixed by inversion, and allowed to rest at room temperature for 15–20 min.
(§2) HEK Freestyle cells (ThermoFisher Scientific, #R79007) seeded in suspension at a density of 250,000 cells/mL were transiently transfected with indicated receptor constructs using Fugene-6 reagent (Promega, #E2691). […] Cells were then lysed via sequential addition of d2-labeled cAMP competitor conjugate and cryptate-conjugated detection antibody (Revity, #62AM4PEC), then incubated for 1 h at room temperature with subsequent quantification of time-resolved fluorescence resonance energy transfer using an Envision plate reader and calibration to external synthetic cAMP standards in a parallel processed plate.

[3] = target: GLP-1R S445A (Homo sapiens, UniProt P43220, S445A); test: cell-based; conditions: read-out: cAMP Emax Mean
Sequence of GLP-1R S445A (P43220 24-463 S445A): as the sequence (P43220 24-463) above, with S422A counted along it
Method: as §1, §2

[4] = target: GLP-1R S442A (Homo sapiens, UniProt P43220, S442A); test: cell-based; conditions: read-out: cAMP Emax Mean
Sequence of GLP-1R S442A (P43220 24-463 S442A): as the sequence (P43220 24-463) above, with S419A counted along it

[5] = target: GLP-1R S444A (Homo sapiens, UniProt P43220, S444A); test: cell-based; conditions: read-out: cAMP Emax Mean
Sequence of GLP-1R S444A (P43220 24-463 S444A): as the sequence (P43220 24-463) above, with S421A counted along it

[6] = target: GLP-1R_TEV_FLAG C-tail (Homo sapiens, UniProt P43220); conditions: WT GLP-1R_TEV C-tail; 1 μM ligand, 10 min 37 °C, FreeStyle 293 cells, LC-PRM, relative to DMSO
Sequence of GLP-1R_TEV_FLAG C-tail (P43220 24-431 limits assumed): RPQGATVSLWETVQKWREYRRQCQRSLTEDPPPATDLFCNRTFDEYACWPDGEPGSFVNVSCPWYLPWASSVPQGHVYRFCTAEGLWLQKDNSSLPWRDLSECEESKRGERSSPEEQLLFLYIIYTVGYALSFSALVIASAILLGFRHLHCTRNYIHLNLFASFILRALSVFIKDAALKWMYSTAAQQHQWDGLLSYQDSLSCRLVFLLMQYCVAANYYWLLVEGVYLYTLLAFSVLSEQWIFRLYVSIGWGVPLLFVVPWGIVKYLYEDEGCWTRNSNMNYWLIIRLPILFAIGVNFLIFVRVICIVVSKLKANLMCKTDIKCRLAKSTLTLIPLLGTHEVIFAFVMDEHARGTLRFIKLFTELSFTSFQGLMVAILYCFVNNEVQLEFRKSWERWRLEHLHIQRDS

[7] = target: GLP-1R 3S→A (S442A/S444A/S445A) (Homo sapiens, UniProt P43220, S442A/S444A/S445A); test: cell-based; conditions: read-out: cAMP Emax Mean
Sequence of GLP-1R 3S→A (S442A/S444A/S445A) (P43220 24-463 S442A/S444A/S445A): as the sequence (P43220 24-463) above, with S419A, S421A, S422A counted along it

[8] = target: T1, GCGR; test: GCGR cAMP accumulation, agonist mode, native and biotinylated peptides; assay type: cell-based; conditions: read-out: cAMP Emax Mean
Method: Figure S1. […] A-B) GCGR cAMP accumulation was measured in (A) agonist mode and (B) antagonist mode using native and biotinylated peptides.

Question: Which Emax [1] does the source give for `CSCC[C@H](NC(=O)[C@H](CC(C)C)NC(=O)[C@H](Cc1c[nH]c2ccccc12)NC(=O)[C@H](CCC(N)=O)NC(=O)[C@@H](NC(=O)[C@H](Cc1ccccc1)NC(=O)[C@H](CC(=O)O)NC(=O)[C@H](CCC(N)=O)NC(=O)[C@H](C)NC(=O)[C@H](CCCNC(=N)N)NC(=O)[C@H](CCCNC(=N)N)NC(=O)[C@H](CO)NC(=O)[C@H](CC(=O)O)NC(=O)[C@H](CC(C)C)NC(=O)[C@H](Cc1ccc(O)cc1)NC(=O)[C@H](CCCCN)NC(=O)[C@H](CO)NC(=O)[C@H](CCCCNC(=O)CCOCCOCCOCCOCCNC(=O)CCCC[C@@H]1SC[C@@H]2NC(=O)N[C@@H]21)NC(=O)[C@H](CC(=O)O)NC(=O)[C@H](CO)NC(=O)[C@@H](NC(=O)[C@@H](O)Cc1ccccc1)[C@@H](C)O)C(C)C)C(=O)N[C@@H](CC(=O)O)C(=O)N[C@H](C(N)=O)[C@@H](C)O` [Biotin-GCGR antagonist] (H-[PhLac]TSDK([PEG4-Biotin])SKYLDSRRAQDFVQWLMDT-NH2) here?
Answer: 120%

Question: `N#Cc1ccc(COc2cccc(C3CCN(Cc4nc5ccc(C(=O)O)cc5n4C[C@@H]4CCO4)CC3)n2)c(F)c1` [danuglipron] was tested. Which Emax [2] did it give?
Answer: 99%

Question: And the Emax [3]?
Answer: 123%

Question: What about the Emax [4] of the same molecule?
Answer: 116%

Question: And the Emax [5]?
Answer: 127%

Question: What about the “increase in the percentage of phosphorylated GLP-1R proteoforms” value [6] of the same molecule?
Answer: 14.5%

Question: What about the Emax [7] of the same molecule?
Answer: 130%

Question: How did the Emax [8] turn out when `CC[C@H](C)[C@H](NC(=O)[C@H](Cc1ccccc1)NC(=O)[C@@H](NC(=O)CNC(=O)[C@H](CCC(N)=O)NC(=O)C(C)(C)NC(=O)[C@@H](N)Cc1c[nH]cn1)[C@@H](C)O)C(=O)N[C@@H](CO)C(=O)N[C@@H](CC(=O)O)C(=O)N[C@@H](CCCCNC(=O)CCOCCOCCOCCOCCNC(=O)CCCC[C@@H]1SC[C@@H]2NC(=O)N[C@@H]21)C(=O)N[C@@H](CO)C(=O)N[C@@H](CCCCN)C(=O)N[C@@H](Cc1ccc(O)cc1)C(=O)N[C@@H](CC(C)C)C(=O)N[C@@H](CC(=O)O)C(=O)NC(C)(C)C(=O)N[C@@H](CCCNC(=N)N)C(=O)N[C@@H](C)C(=O)N[C@@H](C)C(=O)N[C@@H](CCC(N)=O)C(=O)N[C@@H](CC(=O)O)C(=O)N[C@@H](Cc1ccccc1)C(=O)N[C@H](C(=O)N[C@@H](CCC(N)=O)C(=O)N[C@@H](Cc1c[nH]c2ccccc12)C(=O)N[C@@H](CC(C)C)C(=O)N[C@@H](CCSC)C(=O)N[C@@H](CC(=O)O)C(=O)N[C@H](C(=O)O)[C@@H](C)O)C(C)C` [Biotin-GCG] was run?
Answer: 124%

Question: For `CCCCCCCCCCCCCCCC(=O)N[C@@H](CCC(=O)N[C@@H](CCC(=O)NCCCC[C@H](NC(=O)[C@H](CC(=O)O)NC(=O)[C@H](CO)NC(=O)[C@@H](NC(=O)[C@@H](O)Cc1ccccc1)[C@@H](C)O)C(=O)N[C@@H](CO)C(=O)N[C@@H](CCCCN)C(=O)N[C@@H](Cc1ccc(O)cc1)C(=O)N[C@@H](CC(C)C)C(=O)N[C@@H](CC(=O)O)C(=O)N[C@@H](CO)C(=O)N[C@@H](CCCNC(=N)N)C(=O)N[C@@H](CCCNC(=N)N)C(=O)N[C@@H](C)C(=O)N[C@@H](CCC(N)=O)C(=O)N[C@@H](CC(=O)O)C(=O)N[C@@H](Cc1ccccc1)C(=O)N[C@H](C(=O)N[C@@H](CCC(N)=O)C(=O)N[C@@H](Cc1c[nH]c2ccccc12)C(=O)N[C@@H](CC(C)C)C(=O)N[C@@H](CCSC)C(=O)N[C@@H](CC(=O)O)C(=O)N[C@H](C(N)=O)[C@@H](C)O)C(C)C)C(=O)O)C(=O)O` [GCGR Antagonist] (H-[PhLac]TSDK([γGlu-γGlu-Palmitoyl])SKYLDSRRAQDFVQWLMDT-NH2), which Emax [1] is on record?
Answer: 116%
